Measurements reported in patent US20100068150A1, “Selective Caspase Inhibitors” (The Board of Trustees of the Leland Stanford Junior …, priority 2006, published 2010).
Residues, ends and D or L forms follow the SMILES beside them. *: point of attachment. Cbz = O=C(OCc1ccccc1)*; CH2F = FC*

Experiments:
[1] = target: T1, mature p20 forms of caspase-7 (Homo sapiens, UniProt P55210); assay: Inhibitor specificity in hypotonic 293 extracts, mature p20 caspase-7; type: biochemical; conditions: inhibitor 20 μM for 5 min, then KMB01 30 min
T1 construct: p20 is mature large subunit of caspase-7 with N-terminal peptide removed; processing of the zymogen to the large and small subunits by activity of the initiator caspases; endogenous in cells
T1 sequence (P55210 24-198 limits assumed): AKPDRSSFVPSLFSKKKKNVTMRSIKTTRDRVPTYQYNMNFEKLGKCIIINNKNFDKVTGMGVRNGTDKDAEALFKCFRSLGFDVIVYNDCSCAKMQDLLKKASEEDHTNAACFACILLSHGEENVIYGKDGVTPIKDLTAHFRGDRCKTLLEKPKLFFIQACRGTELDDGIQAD
T1 sequence (P55210 207-303 limits assumed): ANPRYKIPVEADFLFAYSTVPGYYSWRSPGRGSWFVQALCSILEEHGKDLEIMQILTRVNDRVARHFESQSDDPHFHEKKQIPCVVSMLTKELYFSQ
Excerpt: (§1) FIGS. 6 A-E illustrate that full-length active caspase-7 has unique inhibitor specificity and is processed to mature forms by downstream executioner caspases. (A) The caspase-3 specific inhibitor causes accumulation of a catalytically active full-length form of caspase-7. Cytosolic extracts from 293 cells were activated with cytochrome c/dATP for the indicated times followed by labeling with KMB01 (left panel) and western blotting with a caspase-7 specific antibody (right panel) as in FIG. 5A. […] (B) The exact same experiment as (A) except extracts from MCF-7 cells were used in place of 293 extracts. (**) indicates forms of caspase-7 that are likely a result of the alternative transcription start site at methionine-45 (C) Quantification of the relative activity of FL-C7 in uninhibited 293 extracts (from FIG. 5A), AB06 treated 293 extracts (from (A)) and uninhibited MCF-7 extracts (from (B)) (D) Inhibitor specificity of full-length and processed forms of caspase-7. Extracts (293) were activated for 5 min with cytochrome c/dATP and then incubated with NP-capped AOMK inhibitors containing the indicated primary amino acid sequences for 5 minutes before KMB01 was added and allowed to label residual caspase active sites for 30 minutes. Samples were analyzed by SDS-PAGE followed by biotin blotting using strepavidin-HRP (left panel) or western blotting for caspase-7 (right panel). Identities of labeled caspases are indicated. (E) Specificity of AB06 after prolonged incubation times. Extracts were treated with AB06 at the indicated concentrations simultaneously with cytochrome c/dATP. At the indicated times after activation, samples were labeled with KMB01 (10 μM) for 30 minutes. Labeled caspases were resolved by SDS-PAGE analysis followed by biotin blotting using strepavidin-HRP.
An additional surprising finding from the inhibitor studies was the overall lack of inhibition of the FL-C7 species by AB06 relative to mature p20 forms of caspase-7. This was surprising since the sequence of AB06 (NP-D3VD-AOMK) differs from the KMB01 probe sequence (Bio-EVD-AOMK) only at the P3 residue. […] We therefore wanted to use inhibitors to compare the ability of different P3 elements to bind to full-length and p20 mature forms of caspase-7. […] Samples were analyzed for active site labeling and protein levels of both full-length and p20 forms of caspase-7 were monitored by western blot (FIG. 6D).
(§2) Hypotonic 293 extracts (73 μg of total protein) were activated at 37° C. for 5 minutes as described above. […] Samples (13.5 μg total protein) were analyzed by SDS-PAGE and biotin blotting as described above

[2] = target: T2, FL-C7 (full-length caspase-7) (Homo sapiens, UniProt P55210); assay: Inhibitor specificity in hypotonic 293 extracts, full-length caspase-7; type: biochemical; conditions: inhibitor 20 μM for 5 min, then KMB01 30 min
T2 construct: the p37 band as the full-length caspase-7 with intact N-terminus (FL-C7); endogenous in cells
T2 sequence (P55210 1-303): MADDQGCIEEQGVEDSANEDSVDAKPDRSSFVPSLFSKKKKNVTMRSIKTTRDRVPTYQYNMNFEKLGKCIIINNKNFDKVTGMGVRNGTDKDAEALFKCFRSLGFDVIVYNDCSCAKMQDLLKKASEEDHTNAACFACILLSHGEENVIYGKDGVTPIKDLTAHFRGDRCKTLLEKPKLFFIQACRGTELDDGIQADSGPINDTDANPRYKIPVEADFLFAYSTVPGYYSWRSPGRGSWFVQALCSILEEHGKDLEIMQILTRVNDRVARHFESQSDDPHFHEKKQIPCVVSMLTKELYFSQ
Excerpt: as §1
To further confirm our assignment of the labeled species we treated samples at various activation times with purified recombinant Bir3 domain of XIAP. […]
An additional surprising finding from the inhibitor studies was the overall lack of inhibition of the FL-C7 species by AB06 relative to mature p20 forms of caspase-7. […] Samples were analyzed for active site labeling and protein levels of both full-length and p20 forms of caspase-7 were monitored by western blot (FIG. 6D).
Hypotonic 293 extracts (73 μg of total protein) were activated as described above and allowed to incubate for the indicated times. […] Labeling was carried out for an additional 30 minutes and samples (13.5 μg total protein) were analyzed by SDS-PAGE and biotin blotting as described above.
as §2

cathepsin B and legumain = assay: In vivo labeling of cathepsin B and legumain in kidney and spleen of normal mice; conditions: intravenous, tissues collected 2 hrs after injection
Experimental: The present selective caspase inhibitors may be used for in vivo imaging. Cy5-fluorescent labeled versions of AB46 and AB50 were injected into normal mice and labeling of cathepsins and legumain in kidney and spleen was monitored (FIG. 14).
Normal mice were intravenously injected with the probes and tissues were collected 2 hrs after injection. Tissues were homogenized and total protein samples were analyzed by SDS-PAGE followed by scanning of the gel using a fluorescent scanner.

sepsis = conditions: mouse model; cited from earlier work
Caspase-3 = target: T3, Caspase-3 (Homo sapiens, UniProt P42574); assay: Kinetic compound screening, progress curve method, caspase-3; type: biochemical
T3 sequence (P42574 29-175 limits assumed): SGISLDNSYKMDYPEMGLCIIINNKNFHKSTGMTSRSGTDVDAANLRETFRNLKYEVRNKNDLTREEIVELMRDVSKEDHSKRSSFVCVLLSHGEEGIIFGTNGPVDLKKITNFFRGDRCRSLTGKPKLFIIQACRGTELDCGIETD
T3 sequence (P42574 176-277 limits assumed): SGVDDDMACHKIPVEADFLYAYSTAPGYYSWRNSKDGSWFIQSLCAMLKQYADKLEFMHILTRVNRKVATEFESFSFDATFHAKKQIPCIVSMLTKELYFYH
Excerpt: (§3) Table III below presents Ki(app) values for select AB compounds. Ki(app) values (also called Kass or Kobs/I) represent the speed of inhibitor binding to a target enzyme. Units are [M^−1s^−1]. NI indicates no inhibition at concentrations tested. Parent compounds AB09, ABo8, and AB07 that include the optimal substrate specificity sequences for caspases-3, […] as determined by Thornberry and colleagues (Thornberry et al., 19970 are included between double lines.
(§4) The inhibitors AB07 (NP-LEHD-AOMK, caspase-9), AB08 (NP-LETD-AOMK, caspase-8), and AB09 (NP-DEVD-AOMK, caspase-3) were synthesized and kinetic inhibition constants (Kiapp) were obtained for all compounds for caspases 3, 7, 8 and 9 using the progress curve method for pseudo-first order reactions kinetics (Salvesen, 1989) (structures shown in Table I). […] Ki(app) values (also called Kass or Kobs/I) represent the speed of inhibitor binding to a target enzyme. Units are [M-1s-1]. NI indicates no inhibition at concentrations tested, ND indicates data not determined, SD indicates standard deviation.
(§5) Compound screening was completed using the progress curve method as described (Salvesen, 1989). All screening was carried out in caspase reaction buffer. The caspase-9 specific compounds AB38, 40, 41 and 42 were screened in caspase reaction buffer and in caspase buffer with 1M sodium citrate instead of sucrose as described (Pop, 2006) The concentrations of active caspases used is as follows: 5 nM active caspase-3, 5 nM active caspase-7, 10 nM active caspase-8, and 50 nM active caspase-9. To ensure full activation, caspases 3/7, 8 and 9 were preincubated at 37° C. for 5, 10, or 40 minutes respectively before kinetic measurements were made.

Caspase-8 = Caspase-8 (Homo sapiens, UniProt Q14790); assay: Kinetic compound screening, progress curve method, caspase-8; type: biochemical
Excerpt: as §3, §4, §5

Caspase-9 = target: T4, Caspase-9 (Homo sapiens, UniProt P55211); assay: Kinetic compound screening, progress curve method, caspase-9; type: biochemical; conditions: NI = no inhibition at concentrations tested
T4 sequence (P55211 1-416): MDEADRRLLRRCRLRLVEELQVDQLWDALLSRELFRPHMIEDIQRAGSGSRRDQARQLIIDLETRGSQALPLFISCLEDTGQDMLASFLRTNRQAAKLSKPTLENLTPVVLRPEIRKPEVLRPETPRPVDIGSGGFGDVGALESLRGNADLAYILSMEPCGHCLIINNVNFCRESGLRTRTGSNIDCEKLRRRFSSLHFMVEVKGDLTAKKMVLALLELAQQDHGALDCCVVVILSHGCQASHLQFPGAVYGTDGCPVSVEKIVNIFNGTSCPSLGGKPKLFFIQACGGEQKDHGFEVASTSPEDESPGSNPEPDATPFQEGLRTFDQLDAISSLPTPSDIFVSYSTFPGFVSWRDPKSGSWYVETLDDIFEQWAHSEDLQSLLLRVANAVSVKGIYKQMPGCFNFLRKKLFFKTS
Excerpt: as §3, §4, §5

[3] = tested on: death receptor-mediated liver injury; conditions: animal models; cited from earlier work
[4] = tested on: Myocardial infarction and the resulting death of myocytes; conditions: animal models; cited from earlier work
Caspase-7 = target: T5, Caspase-7 (Homo sapiens, UniProt P55210); assay: Kinetic compound screening, progress curve method, caspase-7; type: biochemical
T5 sequence (P55210 1-303): T2 sequence (P55210 1-303)
Excerpt: as §3, §4, §5

[5] = tested on: extrinsic and intrinsic apoptotic pathways after spinal cord injury; conditions: animal models; cited from earlier work
[6] = tested on: legumain and cathepsin B in RAW cell extracts; assay: Direct labeling of RAW cell extracts with Cy5 probes; type: binding; conditions: varying concentrations
Excerpt: Cy5 fluorescently labeled versions of the three best caspase probes were compared in direct labeling experiments using recombinant caspase-3 (FIG. 13, bottom panels) and RAW cell extracts (FIG. 13, top panels). […] All probes have similar reactivity towards recombinant caspase-3.

Caspase-8, sequence (Q14790 217-479): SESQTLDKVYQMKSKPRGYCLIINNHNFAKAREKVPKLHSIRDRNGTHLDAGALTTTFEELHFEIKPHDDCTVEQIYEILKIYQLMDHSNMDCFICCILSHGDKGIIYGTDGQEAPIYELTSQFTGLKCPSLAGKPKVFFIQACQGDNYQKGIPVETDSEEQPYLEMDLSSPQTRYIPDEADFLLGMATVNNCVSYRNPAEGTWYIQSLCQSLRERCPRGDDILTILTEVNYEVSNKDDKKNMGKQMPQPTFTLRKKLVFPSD

Compound: Cc1cccc(C)c1C(=O)OCC(=O)[C@H](CC(=O)O)NC(=O)[C@@H](NC(=O)[C@H](Cc1ccncc1)NC(=O)Cc1ccccc1)C(C)C [AB37, Cbz-3-V-D-AOMK]
- block of KMB01 labeling of mature p20 caspase-7 [1]: incomplete inhibition
- inhibition of FL-C7 labeling [2]: relatively insensitive to inhibition

Compound: Cc1cccc(C)c1C(=O)OCC(=O)[C@H](CC(=O)O)NC(=O)[C@@H](NC(=O)[C@H](CCC(=O)O)NC(=O)Cc1ccc(O)c([N+](=O)[O-])c1)C(C)C [AB45, Np-E-V- D-AOMK]
- block of KMB01 labeling of mature p20 caspase-7 [1]: efficiently blocked labeling
- inhibition of FL-C7 labeling [2]: almost totally inhibited

Compound: CC[C@H](NC(=O)[C@@H](CCC(=O)O)NC(=O)Cc1ccc(O)c([N+](=O)[O-])c1)C(=O)N[C@@H](CC(=O)O)C(=O)COC(=O)c1c(C)cccc1C [AB46, Np-E-8-D-AOMK]
- in vivo labeling in kidney and spleen (cathepsin B and legumain): significant labeling of both legumain and cathepsin B

Compound: COC(=O)C[C@H](NC(=O)[C@H](C)NC(=O)[C@@H](NC(=O)OCc1ccccc1)C(C)C)C(=O)CF [ZVAD-fmk, benzyloxycarbonyl-Val-Ala-Asp-fluoromethylketone, reference compound] (Cbz-Val-Ala-Asp(OMe)-CH2F)
- effect on sepsis (sepsis): efficiently reduced
- Ki(app) Caspase-3 (Caspase-3; Table III, Ki(app) = Kass or Kobs/I, 5 nM active caspase-3): 25922 M⁻¹ s⁻¹
- Caspase-3 Ki(app) (Caspase-3; Table IV): 25,922 M-1s-1
- Ki(app) Caspase-8 (Caspase-8; Table III, Ki(app) = Kass or Kobs/I, 10 nM active caspase-8): 203286 M⁻¹ s⁻¹
- Caspase-8 Ki (app) (Caspase-8; Table IV, NI = no inhibition at concentrations tested): 203,286 M-1s-1
- Ki(app) Caspase-9 (Caspase-9; Table III, Ki(app) = Kass or Kobs/I, 50 nM active caspase-9): <5,000 M^−1s^−1
- Caspase-9 Ki (app) (Caspase-9; Table IV): <5,000 M-1s-1
- protection against liver injury [3]: protective and efficiently blocked death receptor-mediated liver injury
- effect on myocardial infarction and death of myocytes [4]: ameliorated
- Ki(app) Caspase-7 (Caspase-7; Table III, Ki(app) = Kass or Kobs/I, 5 nM active caspase-7): <5,000 M^−1s^−1
- Caspase-7 Ki (app) (Caspase-7; Table IV): <5,000 M-1s-1
- effect after spinal cord injury [5]: reduced lesion size and improved motor function

Compound: Cy5-hex-EPD-AOMK [AB50-Cy5]
- direct labeling of off targets in RAW cell extracts [6]: only labels legumain
